Experimental findings from patent publication US12583895B2, “Polypeptides for restoring endothelial function and methods of use thereof” (Vanderbilt University, priority 2019, dated 2026) are described below.

Assay [1] deals with p38 MAPKα (MAPK14) (Homo sapiens, UniProt Q16539). The experiment in a line: SelectScreen kinase profiling. The format is biochemical. As to conditions: peptide 100 μM, single concentration. On the procedure:
FIGS. 14A and 14B show kinase profiling of polypeptides. NiPp, scr3NiPp, and NiPp3 were profiled against 490 kinases at 100 uM using the SelectScreen Kinase Profiling Service (www.thermofisher.com). […] NiPp inhibits MSK1 and p38MAPK alpha by >60%. These two kinases are central to the p38MAPK kinase signaling cascade that play important roles in stress and inflammatory responses. NiPp-specific inhibitory activity to p38 MAPK were not detected for NiPp3 (non-phosphorylated) or scr3NiPp (scrambled) polypeptides.
Kinase profiling. NiPp was dissolved in DMSO, screened at a single concentration of 100 μM using in vitro kinase assays (SelectScreen Kinase Profiling Service; ThermoFisher Scientific, Madison WI) including the Z'LYTE and Adapta kinase activity assays and the LanthaScreen Eu Kinase Binding Assay). Candidate interactions were predicted using STRING Version 11 (www.string-db-org) with the human database at confidence=0.7.
As injury leads to increased p38 MAPK phosphorylation and decreased Niban phosphorylation, one of the mechanisms by which NiPp restores function after endothelial injury can be kinase inhibition. A kinase profiling was performed using three different profiling platforms that measure activity and kinase/substrate binding. […]

Assay [2] concerns rat aorta. The experiment in a line: Endothelial-dependent relaxation of rat aorta after subfailure stretch injury, muscle bath. The format is cell-based. The conditions noted are these: stretch about 2 times resting length, peptide 500 μM, 1 hour, room temperature. On the procedure: Freshly isolated rat aorta (RA) was subjected to subfailure stretch and incubated in PL in the absence (S) or presence of NiPp (500 μM) for 1 h at room temperature. […] The percent relaxation was determined as a change to the maximal PE-induced contraction. n=5 rats; #p<0.05, two-way ANOVA. […] Quantification of relative phosphorylation to total p38MAPK level is shown. N=10. *p<0.05, in one-way ANOVA with Tukey post-test. NiPp restores endothelial dysfunction and reduced p38 MAPK phosphorylation induced by stretch injury in RA.
Freshly isolated rat aorta was subjected to subfailure stretch (to haptic endpoint, approximately 2 times the resting length) and treated with NiPp, NiPp3, or scr3NiPp (500 μM) for 1 hour at room temperature. To determine the effect of injury on endothelial function, phenylephrine-precontracted tissues were treated with carbachol (CCH; 10^−8 to 10^−5M) and the percent relaxation was determined as a change to the maximal PE-induced contraction. Data are reported as mean responses±standard deviation. n=8. *p<0.05, two-way ANOVA with Tukey post-tests. There were significant differences between Stretch (S) vs. ctrl or NiPp-treated RA.
Measurement of endothelial-dependent relaxation. Rings of HSV or RA (1-2 mm) were suspended in a muscle bath containing a bicarbonate buffer (120 mM sodium chloride, 4.7 mM potassium chloride, 1.0 mM magnesium sulfate, 1.0 mM monosodium phosphate, 10 mM glucose, 1.5 mM calcium chloride, and 25 mM sodium bicarbonate, pH 7.4) equilibrated with 95% O2/5% CO2 at 37° C. for 1 h at a resting tension of 1 g, manually stretched to three times the resting tension, and maintained at resting tension for an additional 1 h.
This produced the maximal force tension relationship as previously described. […] Contractile responses were defined by stress, calculated using force generated by tissues as follows: stress (×10^5 N/m^2)=force (g)×0.0987/area, where area=wet weight (mg)/at maximal length (mm)]/1.055.
Relaxation was calculated as percent change in stress compared to the maximal PE-induced contraction (set as 100%). […]

In assay [3] the test system is rat aorta. The experiment in a line: Endothelial-dependent relaxation of rat aorta after endoplasmic reticulum stress (tunicamycin) injury. The conditions noted are these: NiPp 100 and 500 μM, 2 hours, room temperature. The format is cell-based. As for the experimental part: Freshly isolated rat aorta was treated with tunicamycin (TM) to induce injury in the absence or presence of NiPp (100 and 500 μM) for 2 hours at room temperature. To determine the effect of injury on endothelial function, phenylephrine (PE)-precontracted tissues were treated with carbachol (CCH; 10^−8 to 10^−5M) and the percent relaxation was determined as a change to the maximal PE-induced contraction. Data are reported as mean responses±standard deviation. n=6. *p<0.05, two-way ANOVA.
Muscle bath studies. Tissue rings were suspended in bicarbonate buffer in the muscle bath at 37° C., equilibrated with 95% O2/5% CO2 at 37° C. for 1 hour. Rings were manually stretched to 3 grams of tension, followed by a resting tension of 1 gram for an additional 1 hour to produce a maximal force-tension relationship. […] Relaxation was calculated as percent change in stress compared to the maximal PE-induced contraction (set as 100%).
Freshly isolated rat aorta was treated with tunicamycin (TM) to induce injury in the absence or presence of NiPp (100 and 500 μM) for 2 hours at room temperature. To determine the effect of injury on endothelial function, phenylephrine (PE)-precontracted tissues were treated with carbachol (CCH; 10^−8 to 10^−5M) and the percent relaxation was determined as a change to the maximal PE-induced contraction. […]

Non-standard residues stand in square brackets, D forms with d. No end group written: not given here. pS = N[C@@H](COP(=O)(O)O)C(=O)O

Chain of p38 MAPKα (MAPK14) (Q16539 whole entry): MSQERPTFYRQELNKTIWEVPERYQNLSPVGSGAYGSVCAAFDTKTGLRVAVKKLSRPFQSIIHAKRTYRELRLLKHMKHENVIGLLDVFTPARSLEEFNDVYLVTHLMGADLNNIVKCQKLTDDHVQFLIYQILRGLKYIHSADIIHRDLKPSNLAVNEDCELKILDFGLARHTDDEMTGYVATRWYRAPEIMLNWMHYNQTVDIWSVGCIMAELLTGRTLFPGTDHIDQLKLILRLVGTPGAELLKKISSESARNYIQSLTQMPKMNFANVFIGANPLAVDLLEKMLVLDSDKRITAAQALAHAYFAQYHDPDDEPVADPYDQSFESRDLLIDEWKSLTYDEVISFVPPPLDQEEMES

On to “YARAAARQARAAGSPPLA(pS)AIARR (YARAAARQARAAGSPPLA[pS]AIARR) [scr3NiPp]”, for which the “% inhibition of p38 MAPKα” value in assay [1] was “not detected”. In assay [2], the “endothelial function (percent relaxation to carbachol) after subfailure stretch injury” value was “did not restore”.

With “YARAAARQARASPAARRA(pS)AILPG (YARAAARQARASPAARRA[pS]AILPG) [NiPp, Cell-permeant phosphopeptide mimetic of Niban: transduction domain … conjugated to the region surrounding serine 602 of Niban]”, in assay [3], the “endothelial function (percent relaxation to carbachol) after tunicamycin injury” value is on record as “restored”. Besides, the “endothelial function (percent relaxation to carbachol) after subfailure stretch injury” value in assay [2] is given as “restores”.

On to “YARAAARQARASPAARRASAILPG (not fully specified (residue 19)) [NiPp3]”, for which the “% inhibition of p38 MAPKα” value in assay [1] was “not detected”. In addition, the “endothelial function (percent relaxation to carbachol) after subfailure stretch injury” value in assay [2] was “did not restore”.
